Laboratory results from patent US20250381165A1, “Method of Use for Benzofuran Compounds” (Tampa Bay Research Institute, Inc., priority 2024, published 2025).
“Also recorded” adds a separate entry of the source.

Assays:
IMG = assay: CellTiter-Glo cell viability, IMG; assay type: cell-based, murine; details: Mus musculus
Method: (§1) BzFβ was then examined for its effect on the viability of several murine and human cell lines and primary murine splenocytes. The cytotoxicity of BzFβ was assessed using the CellTiter-Glo […] assay system according to manufacturer's instructions to determine BzFβ's effect on the viability of several murine and human cell lines and primary murine splenocytes.
(§2) DC2.4 cell line (Dr. Kenneth Rock, University of Massachusetts), RAW 264.7 cell line (American Type Culture Collection (ATCC), Manassas, VA; TIB 71), and IMG cell line (Millipore™, Merck KGaA, Burlington, MA; cat. no. SC-C134) were each cultured in complete Dulbecco's Modified Eagle Medium (cDMEM) containing […] glucose (Gibco™, Thermo Fisher Scientific Inc., Waltham, MA; cat. no. 10566-016) and supplemented with GlutaMAX, 50 U/mL penicillin and 50 µg/mL streptomycin (Gibco™; cat. no. 15070-063) and 10% heat inactivated fetal bovine serum (FBS) (R&D Systems, Inc., Minneapolis, MN; cat. no. […]
(§3) The cytotoxicity of BzFβ was assessed using the CellTiter-Glo cell […] viability assay system […] cat. no. […] CellTiter-Glo was added 1:1 in the media and the level of chemiluminescence was measured using luminescence at wavelengths of 200 nm to 700 nm through a photomultiplier on BioTek's Synergy HTX multimode microplate reader. […]

DC2.4 = assay: CellTiter-Glo cell viability, DC2.4; assay type: cell-based, murine; set-up: effect on cell viability: unit of the concentration uncertain
Method: as §1, §2, §3

H-2Db on DC2.4 = target: T1, H-2Db on DC2.4 (Mus musculus, UniProt P01899); assay: FITC-labeled HPV peptide RAHYNIVTF binding to DC2.4; assay type: cell-based, murine; details: 25 µg/mL BzFβ 4 or 24 h, 1 h pulse
T1 construct: DC2.4 are a C57Bl/6 lineage murine cell line and as such they express MHC class I H-2Kb and H-2Db; endogenous in cells; host or cells: DC2.4
T1 sequence (P01899 25-362): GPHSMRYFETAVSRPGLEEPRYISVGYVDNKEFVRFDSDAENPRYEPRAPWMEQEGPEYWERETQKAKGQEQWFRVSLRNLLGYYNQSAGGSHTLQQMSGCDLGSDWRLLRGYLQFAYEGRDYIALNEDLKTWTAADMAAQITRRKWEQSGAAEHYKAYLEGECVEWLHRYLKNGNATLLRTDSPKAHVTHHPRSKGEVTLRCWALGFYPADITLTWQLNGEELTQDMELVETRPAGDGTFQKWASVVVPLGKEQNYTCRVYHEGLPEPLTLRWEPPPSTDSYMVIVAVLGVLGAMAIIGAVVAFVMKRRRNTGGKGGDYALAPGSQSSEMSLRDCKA
T1 sequence (P01887 21-119 partner): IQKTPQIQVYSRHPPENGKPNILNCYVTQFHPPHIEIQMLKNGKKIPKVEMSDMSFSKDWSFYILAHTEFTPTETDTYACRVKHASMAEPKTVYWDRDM
Method: For peptide loading studies, cultured cells were treated for various times as indicated in results and figure legends. Cells were centrifuged and washed using cold FACS buffer (DPBS with 5% FBS, 2 mM EDTA, 0.1% sodium azide). Cells were blocked using Fc block (bioLegend™; cat. no. 101320) for 10 min to 15 min to inhibit non-specific binding, followed by staining with fluorophore-conjugated antibody PE-labeled anti-MHC I/SIINFEKL (clone 25-D1.16, Invitrogen 12-5743-82), for 30 min at 4° C. For N-terminal FITC labeled H-2Db peptide RAHYNIVTF (AnaSpec Inc., Fremont, CA; cat. no.) cells were incubated with peptide for 1-4 h before washing and analysis. After washing, the cells were subjected to flow cytometric analysis with the Attune NxT Flow Cytometer (Invitrogen™). Cells were gated based on live single-cell populations and positives were assessed using isotype controls and fluor-minus-one analysis when needed. Data were analyzed using the Attune NxT software or FlowJo versions 10.7 and 10.8.
Cells were cultured as previously described and treated for various times as indicated in results and figure legends. […] Cells were gated based on live single-cell populations and positives were assessed using isotype controls and fluor-minus-one analysis when needed. Data were analyzed using the Attune NxT software or FlowJo versions 10.7 and 10.8. […]

[1] = system: DC2.4 cells (B3Z activation); assay: Cross-presentation of whole OVA by DC2.4 to B3Z; assay type: cell-based, murine; details: co-treatment 6 h, 0.5 mg/mL OVA; p<0.001 all doses
Method: DC2.4 cells (5×10^5 cells/ml) were seeded at 100 μL/well in 96 well plates and cultured overnight. The cells were washed with DPBS, and co-exposed to 0.5 mg/mL soluble whole OVA, along with increasing concentrations of BzFβ for 6 h, The cells were then co-cultured with equal number of B3Z cells at 37° C. for 19 h.

HEK293T = assay: CellTiter-Glo cell viability, HEK293T; assay type: cell-based; details: Homo sapiens, HEK-293T
Method: as §1, §2, §3

## O=C(O)/C=C/c1ccc2occc2c1 [BzFβ, (2E)-3-(1-benzofuran-5-yl)prop-2-enoic acid]
IMG
  IC50: 316 µM
DC2.4; Mus musculus, DC2.4, CellTiter-Glo
  IC50: 1150 µM
DC2.4; all the cell lines examined, except HEK293T, 24 h exposure, concentrations lower than 50 µg/mL (266 (unit uncertain))
  effect on cell viability: small effects on cell viability
H-2Db on DC2.4
  binding of FITC labeled HPV peptide to H-2Db: enhance peptide binding on both haplotypes; also recorded: significant increase in peptide binding
[1]
  B3Z response, cross-presentation of OVA: significantly enhance the B3Z response
HEK293T
  IC50: 432 µM
